Measurements reported in patent publication US20170363646A1, “METHOD FOR DETECTING MOLECULES THAT INHIBIT THE INTERACTION OF CD36 PROTEIN WITH AMYLOID BETA” (Instituto de Investigaciones Cientificas y Servicios de …, priority 2015, published 2017).

How the values were obtained:
microglial cell line = details: previously demonstrated (17); cited from earlier work
[1] = biological target: T1, interaction between rCD36 and fAβ1-42 (Homo sapiens, UniProt P16671); assay: colorimetric rCD36-fAβ1-42 interaction assay on polystyrene plate; format: binding; details: added 30 minutes prior to fAβ1-42 and maintained, p<0.05 by t-test, FIG. 7
T1 construct: the extracellular domain of the CD36 protein, corresponding to Gly30-Asn439; 6xHis (C); made in house; host or cells: Escherichia coli BL21 (DE3), pET30-CD36; purified by IMAC under denaturing conditions and renatured in PBS
T1 sequence (P16671 30-439): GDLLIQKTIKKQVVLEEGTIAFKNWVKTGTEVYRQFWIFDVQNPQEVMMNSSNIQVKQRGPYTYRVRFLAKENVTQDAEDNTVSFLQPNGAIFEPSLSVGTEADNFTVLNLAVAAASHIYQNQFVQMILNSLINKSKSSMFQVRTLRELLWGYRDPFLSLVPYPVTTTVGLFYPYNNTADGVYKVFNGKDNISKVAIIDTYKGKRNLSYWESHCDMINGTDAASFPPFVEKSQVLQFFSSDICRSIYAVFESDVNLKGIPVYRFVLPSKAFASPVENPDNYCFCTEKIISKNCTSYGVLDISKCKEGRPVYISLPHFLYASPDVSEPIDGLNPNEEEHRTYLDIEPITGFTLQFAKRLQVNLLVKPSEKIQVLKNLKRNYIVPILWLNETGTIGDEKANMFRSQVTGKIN
Source text: The invention consists in the development of a rapid colorimetric procedure that through the adhesion of the recombinant protein CD36 to a polystyrene plate enables the evaluation of molecules that can inhibit the interaction of such protein and the amyloid beta. The process or method of this invention is based on the interaction of A) recombinant extracellular portion of the CD36 protein with B) the Aβ peptide in its fibril state. […] The presence of compounds that inhibit the ligand-receptor interaction in the reaction produces a reduction of the colorimetric signal generated after the addition of the substrate (FIG. 1). The fibrillar Aβ is prepared on the basis of the synthetic peptide incubated at 37° C., in distilled water. The fibrils are prepared by controlling the polymerization of the monomers, which is monitored through the Thioflavin T fluorescent assay (11). […]
Considering that the vast majority of the natural or synthetic compounds that will be tested in the screening phase are diluted in Dimethyl Sulfoxide (DMSO), the tolerance of the assay to this solvent was evaluated. First, the assay sensitivity was evaluated at a concentration of 0.1% DMSO in conjugated serial dilutions where concentrations of rCD36 and fAβ1-42 varied, similar to the description given in example 2 (FIG. 3). […] Later, the tolerance of the assay was evaluated at different doses of DMSO. […]

[2] = biological target: interaction between CD36 and fAβ1-42 (Homo sapiens, UniProt P16671); details: cell-based assay, previously demonstrated (17); cited from earlier work
Sequence of interaction between CD36 and fAβ1-42 (P16671 whole entry): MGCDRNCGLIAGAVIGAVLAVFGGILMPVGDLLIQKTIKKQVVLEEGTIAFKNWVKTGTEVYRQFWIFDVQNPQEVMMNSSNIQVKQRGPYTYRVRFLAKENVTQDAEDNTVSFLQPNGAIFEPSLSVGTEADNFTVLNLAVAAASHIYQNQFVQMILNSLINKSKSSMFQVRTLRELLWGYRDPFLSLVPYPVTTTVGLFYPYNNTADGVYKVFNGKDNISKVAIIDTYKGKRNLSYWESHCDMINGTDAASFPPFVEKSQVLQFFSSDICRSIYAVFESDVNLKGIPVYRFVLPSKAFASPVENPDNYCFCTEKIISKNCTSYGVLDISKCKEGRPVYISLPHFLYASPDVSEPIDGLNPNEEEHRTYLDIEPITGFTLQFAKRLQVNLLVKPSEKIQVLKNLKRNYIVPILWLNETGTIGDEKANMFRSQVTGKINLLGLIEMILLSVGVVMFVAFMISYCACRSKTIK

**Q.** Which “effect on Aβ-induced nitric oxide production” value (microglial cell line) does the source give for `C[C@H]1[C@H](C)CC[C@]2(C(=O)O)CC[C@]3(C)C(=CC[C@@H]4[C@@]5(C)CC[C@H](O)C(C)(C)[C@@H]5CC[C@]43C)[C@H]12` [ursolic acid] here?
**A.** this inhibition impacts on the Aβ-induced nitric oxide production

**Q.** And the “decrease of the interaction between rCD36 and fAβ1-42” value ([1]; ursolic acid 100 μM)?
**A.** significant decrease

**Q.** What about the “decrease of the interaction between rCD36 and fAβ1-42” value ([1]; ursolic acid 200 μM) of the same molecule?
**A.** significant decrease

**Q.** And the “inhibition of the interaction between CD36 and fAβ1-42” value [2]?
**A.** inhibits such interaction
